Structures are written as SMILES.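 In this assay, cells in 96-well plates receive the compound at five concentrations for 48 hours. Endpoints are linearly interpolated between the surrounding concentrations. GI50 is the concentration that inhibits growth by half. Definition used: TGI = concentration required for complete inhibition of growth.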 A value given as a limit tells only on which side of the number the result lay.

Some test systems named below: SF-295 CNS; UO-31 renal; SW-620 colon; HS 578T breast; RXF 393 renal; OVCAR-4 ovarian; K-562 leukemia; PC-3 prostate; BT-549 breast; DU-145 prostate.
What all share (assay): NCI tumour cell line growth inhibition, 48 h

With `COC(=O)CN1CCN(c2cccc3c2CCCC3)CC1`, the TGI in the assay with SF-295 CNS, with UO-31 renal, in the assay on SW-620 colon, in the assay on HS 578T breast, in the assay with RXF 393 renal and with OVCAR-4 ovarian was greater than 100 µM each time. Besides, the TGI with K-562 leukemia and in the assay on PC-3 prostate was greater than 100 µM in each case.
Consider `CN(C)C(=O)C(F)(F)C(c1ccccc1Br)C1C(=O)N(C)C(=O)N(C)C1=O` (stereo not drawn), for which the TGI in the assay on BT-549 breast, with SF-295 CNS, with UO-31 renal, in the assay on SW-620 colon, in the assay on RXF 393 renal and in the assay on DU-145 prostate was greater than 100 µM in each case. The TGI with OVCAR-4 ovarian, with K-562 leukemia and with PC-3 prostate was greater than 100 µM throughout.
With `CCOC(=O)N1c2ccccc2C(C)=CC(C)C1C` (stereo not drawn), the TGI with SF-295 CNS was 68.3 µM; with UO-31 renal, greater than 100 µM; in the assay with SW-620 colon, greater than 100 µM; in the assay with HS 578T breast, 82.2 µM; in the assay on RXF 393 renal, 51 µM; in the assay with DU-145 prostate, greater than 100 µM. Also, the TGI with OVCAR-4 ovarian, with K-562 leukemia and in the assay on PC-3 prostate was greater than 100 µM in each case.
Take `CNC(=S)N/N=C/C(C)=N/NC(=S)NC`: the TGI in the assay with SF-295 CNS, in the assay with UO-31 renal, with SW-620 colon and in the assay on RXF 393 renal was greater than 100 µM throughout.
As to `C/C(=C\C(=O)Nc1ccc2n[nH]nc2c1)Nc1ccc2n[nH]nc2c1`, the TGI in the assay on SF-295 CNS, in the assay with UO-31 renal, with SW-620 colon, in the assay on RXF 393 renal, in the assay with OVCAR-4 ovarian and in the assay with K-562 leukemia was greater than 100 µM throughout.
For `O=C(/C=C/c1ccc(OCc2ccccc2)cc1)NCc1ccc(C(=O)NCCc2ccccc2)cc1`, the TGI with BT-549 breast, in the assay on SF-295 CNS, with UO-31 renal, with SW-620 colon, in the assay with HS 578T breast and in the assay with RXF 393 renal was greater than 100 µM in each case. Moreover, the TGI with DU-145 prostate, in the assay on OVCAR-4 ovarian and with PC-3 prostate was greater than 100 µM throughout.
For the compound `CSc1cc(Cl)c(C)cc1S(=O)(=O)NC(=O)NNc1ccc(C)cc1`, the TGI with SF-295 CNS, with SW-620 colon, in the assay with HS 578T breast, in the assay with RXF 393 renal, in the assay with DU-145 prostate and in the assay on OVCAR-4 ovarian was greater than 100 µM throughout. For the same compound, the TGI with K-562 leukemia and with PC-3 prostate was greater than 100 µM throughout.
Turning to `CCCCCCCCCCCC1N=C(N)N=C(N)N1c1cccc(Br)c1` (stereo not drawn), the GI50 in the assay on SF-295 CNS is 1.16 µM; in the assay with UO-31 renal, 4.89 µM; in the assay with SW-620 colon, 0.837 µM; in the assay with HS 578T breast it was 2.08 µM; in the assay on DU-145 prostate it was 1.16 µM. For the same compound, the TGI with SF-295 CNS came to 19.4 µM; in the assay on UO-31 renal, 13 µM; in the assay on SW-620 colon, 2.26 µM; in the assay with HS 578T breast, 4.77 µM; in the assay with DU-145 prostate, 2.42 µM.
For the compound `O=C(/C=C/c1ccc(-c2ccccc2)cc1)NCc1ccc(C(=O)NCCc2ccccc2)cc1`, the TGI in the assay with BT-549 breast is greater than 100 µM; with SF-295 CNS, greater than 100 µM; with UO-31 renal it was greater than 100 µM; in the assay with SW-620 colon, greater than 100 µM; with RXF 393 renal, 94.9 µM; with DU-145 prostate, greater than 100 µM. For the same compound, the TGI with OVCAR-4 ovarian, in the assay on K-562 leukemia and with PC-3 prostate was greater than 100 µM throughout.
As to `Cc1ccc(S(=O)(=O)N/N=C2\C=CC3(CC2)C(=O)N(I)c2ccccc23)cc1` (stereo not drawn), the TGI was greater than 100 µM with SF-295 CNS; greater than 100 µM with UO-31 renal; greater than 100 µM with SW-620 colon; 98 µM with RXF 393 renal; greater than 100 µM in the assay with OVCAR-4 ovarian; greater than 100 µM with K-562 leukemia. The compound also registered a TGI in the assay with PC-3 prostate greater than 100 µM.
For `Cc1ccc(/C=c2\cc3oc(=O)c4cccc(c4-3)c2=O)cc1`, the TGI in the assay on SF-295 CNS, in the assay on UO-31 renal, in the assay on SW-620 colon, with DU-145 prostate, in the assay on OVCAR-4 ovarian and in the assay on K-562 leukemia was greater than 100 µM in each case. In the assay on PC-3 prostate, this compound yielded a TGI greater than 100 µM.
Consider `S=C(NCc1ccccn1)N/N=C/c1ccccn1`, for which the TGI was greater than 96 µM in the assay with SF-295 CNS; 32.6 µM with UO-31 renal; greater than 100 µM in the assay on SW-620 colon; 70.1 µM in the assay on HS 578T breast; 4.52 µM in the assay on RXF 393 renal; greater than 100 µM in the assay on DU-145 prostate. In addition, the TGI with OVCAR-4 ovarian was greater than 30.5 µM; in the assay on K-562 leukemia, less than 0.0108 µM; in the assay on PC-3 prostate, greater than 84.9 µM.
Turning to `CC(=O)N[C@@H](Cc1ccc(O)cn1)C(=O)NCc1ccc(Cl)cc1`, the TGI in the assay on BT-549 breast, in the assay on SF-295 CNS, in the assay with UO-31 renal, in the assay on SW-620 colon, with RXF 393 renal and with DU-145 prostate was greater than 100 µM in each case. In addition, the TGI in the assay with OVCAR-4 ovarian, in the assay on K-562 leukemia and with PC-3 prostate was greater than 100 µM throughout.
As for `Nc1nc(SCc2ccccc2Cl)c2ncn(C3OC(CO)C(O)C3O)c2n1` (stereo not drawn), the TGI in the assay on SF-295 CNS, with UO-31 renal, with SW-620 colon, in the assay on RXF 393 renal, in the assay on OVCAR-4 ovarian and in the assay with K-562 leukemia was greater than 100 µM throughout.
On to `O=C(Nc1cccc(-n2ccc3c(NC(=O)c4ccccc4)ncnc32)c1)Nc1ccc(Cl)c(C(F)(F)F)c1`, for which the GI50 in the assay with SF-295 CNS is 1.43 µM; with UO-31 renal, 3.44 µM; in the assay on SW-620 colon it was 3.26 µM; with HS 578T breast, 2.55 µM; with RXF 393 renal it was 1.68 µM; in the assay with DU-145 prostate it was 4.52 µM. For the same compound, the GI50 in the assay with OVCAR-4 ovarian was 2.36 µM; in the assay with K-562 leukemia it was 1.61 µM; with PC-3 prostate, 1.25 µM. Also, the TGI in the assay on SF-295 CNS came to 7.24 µM; with UO-31 renal it was 10.9 µM; with SW-620 colon, 10.1 µM; in the assay on HS 578T breast, 22.6 µM; with RXF 393 renal, 6.66 µM; with DU-145 prostate it was 11.3 µM. For the same compound, the TGI in the assay with OVCAR-4 ovarian stood at 8.18 µM; with K-562 leukemia, 50 µM; in the assay on PC-3 prostate it was 5.93 µM.
